Reference: ChEMBL document CHEMBL1201862, “PubChem BioAssay data set” (2004)
The source made the active and inactive calls.

Experiments:
[1] = HeLa cell cytotoxicity, dose response, cytotoxicity control, 24 h, plate reader, powder samples, set 3 (AID 651864); assay type: functional, cell-based
[2] = biological target: DNA repair and recombination protein RAD54-like (Homo sapiens, UniProt Q92698); assay: inhibitors of human RAD54 branch migration, confirmation, biochemical, fluorescence, cherry-picked samples, dose series (AID 651657); assay type: functional
Sequence of DNA repair and recombination protein RAD54-like (Q92698 whole entry): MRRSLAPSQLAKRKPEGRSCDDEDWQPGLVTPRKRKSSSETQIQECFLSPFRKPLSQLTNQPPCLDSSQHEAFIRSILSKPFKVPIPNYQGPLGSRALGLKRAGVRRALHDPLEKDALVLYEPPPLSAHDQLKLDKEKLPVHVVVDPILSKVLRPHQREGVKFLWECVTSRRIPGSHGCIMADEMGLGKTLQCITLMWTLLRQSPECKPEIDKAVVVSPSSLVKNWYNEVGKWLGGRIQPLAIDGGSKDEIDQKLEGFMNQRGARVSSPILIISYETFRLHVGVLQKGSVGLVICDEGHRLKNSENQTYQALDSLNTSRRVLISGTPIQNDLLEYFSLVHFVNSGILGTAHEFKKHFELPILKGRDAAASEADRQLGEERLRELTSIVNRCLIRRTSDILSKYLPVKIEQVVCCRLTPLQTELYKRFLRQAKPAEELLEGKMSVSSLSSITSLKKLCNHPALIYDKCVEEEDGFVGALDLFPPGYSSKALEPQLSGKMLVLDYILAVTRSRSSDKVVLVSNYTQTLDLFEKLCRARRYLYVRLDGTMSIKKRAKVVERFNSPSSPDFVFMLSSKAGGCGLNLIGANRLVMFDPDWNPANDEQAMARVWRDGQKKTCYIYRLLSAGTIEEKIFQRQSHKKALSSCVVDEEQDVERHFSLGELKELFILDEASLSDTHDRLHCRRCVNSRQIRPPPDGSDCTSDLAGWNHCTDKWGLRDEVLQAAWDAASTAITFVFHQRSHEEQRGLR

[3] = Counterscreen for activators of the function of SWI/SNF related, matrix associated, actin dependent regulator of chromatin, subfamily a, member 2 (SMARCA2, BRM): Luminescence-based cell-based high throughput dose response assay to identify non-selective compounds using the VP16 reporter assay.; assay type: functional
[4] = biological target: T1, Heat shock factor protein 1 (Mus musculus, UniProt P38532); assay: HSF1 potentiators in luciferase reporter cells, confirmation, cell-based, NIH3T3, luminescence, dose retest (AID 435004); assay type: functional;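 further: stress induced by proteasome inhibitor MG132 added 30 min after compound; luciferase reporter driven by HSF1 response element in NIH3T3 cells; actives raise luminescence as potentiators of the MG132 stress response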
T1 sequence (P38532 whole entry): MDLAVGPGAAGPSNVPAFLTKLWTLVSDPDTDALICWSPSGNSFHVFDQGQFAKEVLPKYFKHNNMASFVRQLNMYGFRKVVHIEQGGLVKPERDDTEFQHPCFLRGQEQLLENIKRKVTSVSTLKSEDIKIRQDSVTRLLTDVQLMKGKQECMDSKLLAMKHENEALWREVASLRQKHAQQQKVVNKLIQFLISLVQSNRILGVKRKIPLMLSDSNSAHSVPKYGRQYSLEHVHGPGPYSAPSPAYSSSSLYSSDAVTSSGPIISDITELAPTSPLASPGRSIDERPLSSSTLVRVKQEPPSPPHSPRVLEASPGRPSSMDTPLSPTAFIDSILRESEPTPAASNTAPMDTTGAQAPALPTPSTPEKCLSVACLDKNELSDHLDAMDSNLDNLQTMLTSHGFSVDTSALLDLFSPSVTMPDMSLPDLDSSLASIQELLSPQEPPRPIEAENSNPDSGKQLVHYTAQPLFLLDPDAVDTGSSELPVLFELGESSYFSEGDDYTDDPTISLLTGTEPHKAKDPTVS

[5] = biological target: SWI/SNF-related matrix-associated actin-dependent regulator of chromatin subfamily A member 2 (Homo sapiens, UniProt P51531); assay: Luminescence-based cell-based high throughput dose response assay to identify activators of the function of SWI/SNF related, matrix associated, actin dependent regulator of chromatin, subfamily a, member 2 (SMARCA2, BRM).; assay type: functional
[6] = cytotoxicity in A549 cells, dose response, cytotoxicity control, cell-based, CellTiter-Glo luminescence, cherry-pick (AID 743484); assay type: functional
[7] = Luminescence Cell-Based Dose Response HTS to Identify Inhibitors of 5'UTR Stem-Loop Driven Prion Protein mRNA Translation in H4 Neuroglioblastoma Cells. [Related pubchem assays: 1827 (Project Summary), 1813 (Primary HTS)]; assay type: functional
[8] = HEK293T cell cytotoxicity, dose response, cytotoxicity control, CellTiter-Glo luminescence, cherry-picked samples, set 4 (AID 743441); assay type: functional, cell-based; conditions: HEK293
[9] = inhibitors of SNCA 5'UTR-driven reporter translation, confirmation, H4 neuroglioma cells, luminescence (AID 1988); assay type: functional, cell-based
fMet-Leu-Phe receptor = fMet-Leu-Phe receptor (Homo sapiens, UniProt P21462); assay: FPR ligands, dose response (AID 519); assay type: functional
[10] = biological target: T2, Voltage-gated N-type calcium channel alpha-1B subunit/Amyloid beta A4 precursor protein-binding family A member 1 (Homo sapiens, UniProt Q00975+Q02410); assay type: protein assay
T2 sequence (Q00975 whole entry): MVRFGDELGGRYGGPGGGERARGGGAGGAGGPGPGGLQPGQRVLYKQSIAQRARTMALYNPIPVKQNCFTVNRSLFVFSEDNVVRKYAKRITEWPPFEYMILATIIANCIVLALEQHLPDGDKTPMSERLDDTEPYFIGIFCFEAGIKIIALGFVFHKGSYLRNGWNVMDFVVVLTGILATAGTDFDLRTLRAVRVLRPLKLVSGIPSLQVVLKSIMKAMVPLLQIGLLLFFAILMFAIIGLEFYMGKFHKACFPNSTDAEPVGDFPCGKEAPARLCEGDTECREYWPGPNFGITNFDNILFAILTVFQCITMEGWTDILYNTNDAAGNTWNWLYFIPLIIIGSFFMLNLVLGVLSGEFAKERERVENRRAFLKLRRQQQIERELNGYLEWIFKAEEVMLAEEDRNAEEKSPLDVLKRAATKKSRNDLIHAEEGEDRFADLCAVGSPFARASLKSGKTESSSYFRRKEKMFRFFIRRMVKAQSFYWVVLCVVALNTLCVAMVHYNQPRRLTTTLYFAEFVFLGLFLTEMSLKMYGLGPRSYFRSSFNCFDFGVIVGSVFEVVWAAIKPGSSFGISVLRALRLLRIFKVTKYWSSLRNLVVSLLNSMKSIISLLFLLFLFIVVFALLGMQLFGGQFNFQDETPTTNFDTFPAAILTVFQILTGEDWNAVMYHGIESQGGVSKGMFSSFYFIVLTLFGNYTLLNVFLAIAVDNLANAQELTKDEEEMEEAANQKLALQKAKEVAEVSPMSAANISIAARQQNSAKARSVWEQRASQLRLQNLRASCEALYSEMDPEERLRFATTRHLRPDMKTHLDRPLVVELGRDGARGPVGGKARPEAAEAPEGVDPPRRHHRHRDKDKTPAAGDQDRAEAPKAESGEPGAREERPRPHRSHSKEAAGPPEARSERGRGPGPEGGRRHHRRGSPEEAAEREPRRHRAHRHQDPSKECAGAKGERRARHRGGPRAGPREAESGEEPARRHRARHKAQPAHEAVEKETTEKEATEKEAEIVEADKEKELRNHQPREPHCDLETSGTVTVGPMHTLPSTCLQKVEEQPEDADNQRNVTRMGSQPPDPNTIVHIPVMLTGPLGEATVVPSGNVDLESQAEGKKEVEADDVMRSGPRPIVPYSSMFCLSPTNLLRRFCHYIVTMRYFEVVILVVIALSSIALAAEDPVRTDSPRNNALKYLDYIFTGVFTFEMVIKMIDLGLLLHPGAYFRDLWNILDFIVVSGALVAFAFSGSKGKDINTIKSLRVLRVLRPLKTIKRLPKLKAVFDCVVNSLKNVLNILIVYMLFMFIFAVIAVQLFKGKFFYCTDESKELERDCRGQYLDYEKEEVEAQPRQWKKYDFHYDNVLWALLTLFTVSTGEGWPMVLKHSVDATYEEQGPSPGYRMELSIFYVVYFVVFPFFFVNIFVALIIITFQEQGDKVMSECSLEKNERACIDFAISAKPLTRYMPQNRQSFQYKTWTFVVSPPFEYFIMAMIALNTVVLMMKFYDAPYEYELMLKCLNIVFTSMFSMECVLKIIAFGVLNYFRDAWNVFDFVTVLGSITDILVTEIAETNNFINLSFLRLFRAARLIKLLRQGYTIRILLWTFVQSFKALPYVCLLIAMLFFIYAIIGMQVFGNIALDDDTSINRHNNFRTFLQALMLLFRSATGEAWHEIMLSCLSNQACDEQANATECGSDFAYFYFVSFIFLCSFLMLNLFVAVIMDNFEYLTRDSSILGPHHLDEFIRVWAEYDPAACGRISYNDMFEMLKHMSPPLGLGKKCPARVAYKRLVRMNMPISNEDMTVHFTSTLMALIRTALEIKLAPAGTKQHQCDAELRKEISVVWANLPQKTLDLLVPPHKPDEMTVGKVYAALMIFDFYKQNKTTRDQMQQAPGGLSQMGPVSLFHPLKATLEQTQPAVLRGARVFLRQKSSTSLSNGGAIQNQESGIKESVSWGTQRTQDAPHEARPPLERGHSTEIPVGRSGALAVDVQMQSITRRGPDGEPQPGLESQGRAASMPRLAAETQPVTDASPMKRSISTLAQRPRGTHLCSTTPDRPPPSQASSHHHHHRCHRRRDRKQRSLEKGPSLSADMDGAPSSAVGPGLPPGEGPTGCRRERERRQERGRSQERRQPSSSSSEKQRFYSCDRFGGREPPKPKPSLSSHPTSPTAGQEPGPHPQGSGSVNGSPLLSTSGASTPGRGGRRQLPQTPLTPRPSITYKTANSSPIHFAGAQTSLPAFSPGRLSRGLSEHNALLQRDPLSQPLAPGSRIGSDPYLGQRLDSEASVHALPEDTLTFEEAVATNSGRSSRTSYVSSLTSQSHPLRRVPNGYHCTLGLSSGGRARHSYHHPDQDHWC
T2 sequence (Q02410 whole entry): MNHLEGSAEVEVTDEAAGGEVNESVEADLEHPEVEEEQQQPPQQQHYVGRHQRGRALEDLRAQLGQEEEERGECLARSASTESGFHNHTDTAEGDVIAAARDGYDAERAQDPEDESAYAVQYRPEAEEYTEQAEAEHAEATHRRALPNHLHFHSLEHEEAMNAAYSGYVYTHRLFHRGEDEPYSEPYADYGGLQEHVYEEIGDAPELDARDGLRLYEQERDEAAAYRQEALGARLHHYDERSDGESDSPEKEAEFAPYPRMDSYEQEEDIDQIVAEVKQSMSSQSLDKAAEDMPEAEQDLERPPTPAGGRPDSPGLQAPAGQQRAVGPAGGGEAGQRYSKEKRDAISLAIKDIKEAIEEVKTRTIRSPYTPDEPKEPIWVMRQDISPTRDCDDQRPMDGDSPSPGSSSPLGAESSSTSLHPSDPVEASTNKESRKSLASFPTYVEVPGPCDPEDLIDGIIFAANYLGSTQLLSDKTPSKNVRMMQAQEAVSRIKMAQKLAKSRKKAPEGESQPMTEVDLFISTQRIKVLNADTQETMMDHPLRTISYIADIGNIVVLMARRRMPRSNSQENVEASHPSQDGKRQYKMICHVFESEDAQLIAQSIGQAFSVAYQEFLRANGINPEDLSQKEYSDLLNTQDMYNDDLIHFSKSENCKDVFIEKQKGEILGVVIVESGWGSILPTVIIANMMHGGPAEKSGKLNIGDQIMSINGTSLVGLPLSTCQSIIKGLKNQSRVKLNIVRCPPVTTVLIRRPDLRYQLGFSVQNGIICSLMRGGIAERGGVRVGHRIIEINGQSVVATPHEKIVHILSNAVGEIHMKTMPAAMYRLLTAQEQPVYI

[11] = biological target: T3, Sentrin-specific protease 8 (Homo sapiens, UniProt Q96LD8); assay type: functional
T3 sequence (Q96LD8 whole entry): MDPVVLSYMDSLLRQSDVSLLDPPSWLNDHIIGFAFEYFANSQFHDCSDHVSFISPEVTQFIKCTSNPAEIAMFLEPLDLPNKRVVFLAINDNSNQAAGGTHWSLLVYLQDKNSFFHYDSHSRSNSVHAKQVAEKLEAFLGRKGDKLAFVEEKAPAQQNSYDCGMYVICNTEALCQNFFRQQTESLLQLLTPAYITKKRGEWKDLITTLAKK

[12] = biological target: T2, Voltage-gated N-type calcium channel alpha-1B subunit/Amyloid beta A4 precursor protein-binding family A member 1; assay type: protein assay; remark: listed apart in the source
[13] = biological target: T3, Sentrin-specific protease 8; assay type: functional; remark: listed apart in the source
[14] = biological target: Glucose-6-phosphate 1-dehydrogenase (Homo sapiens, UniProt P11413); assay: human G6PD enzyme inhibitors, dose response, selectivity assay for P. falciparum G6PD inhibitor project, biochemical, fluorescence (AID 504792); assay type: functional
Sequence of Glucose-6-phosphate 1-dehydrogenase (P11413 whole entry): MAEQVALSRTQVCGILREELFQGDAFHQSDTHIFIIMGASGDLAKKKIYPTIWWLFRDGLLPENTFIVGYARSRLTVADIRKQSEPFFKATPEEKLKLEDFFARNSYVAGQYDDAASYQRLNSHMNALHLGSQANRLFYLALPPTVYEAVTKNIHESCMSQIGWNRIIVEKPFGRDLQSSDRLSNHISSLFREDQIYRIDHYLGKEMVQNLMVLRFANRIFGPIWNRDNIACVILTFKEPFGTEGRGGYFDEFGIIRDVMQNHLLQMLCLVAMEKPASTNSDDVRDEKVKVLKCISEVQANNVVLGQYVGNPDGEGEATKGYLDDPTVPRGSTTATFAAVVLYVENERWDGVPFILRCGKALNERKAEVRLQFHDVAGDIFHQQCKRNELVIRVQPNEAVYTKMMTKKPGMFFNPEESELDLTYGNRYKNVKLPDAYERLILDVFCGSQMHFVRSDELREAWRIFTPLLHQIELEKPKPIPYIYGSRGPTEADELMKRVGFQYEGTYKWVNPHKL

[15] = HepG2 cell cytotoxicity, dose response, cytotoxicity control, ATP luminescence, cherry-pick, activator set 2 (AID 1053143); assay type: functional, cell-based
[16] = biological target: Matrix metalloproteinase-14 (Homo sapiens, UniProt P50281); assay: Dose Response confirmation of uHTS hits for a small molecule inhibitors of MT1-MMP activation in a fluorescence assay set 1.; assay type: functional
BJ [17] = assay: cytotoxicity toward BJ-TERT fibroblasts, dose response, cell-based, RAS-independent, luminescence (AID 1933); assay type: functional; conditions: Homo sapiens
[18] = LGR2 antagonists, dose response, cell-based, HEK293, CRE-luciferase reporter, cherry pick, set 2 (AID 743343); assay type: functional;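 further: transfected cells were stimulated with diluted bursicon conditioned medium after compound addition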
[19] = Luminescence Cell-Based Dose Confirmation HTS to Identify Inhibitors of Platelet Dense Granule Release. [Related pubchem assays: 1663 (Primary HTS), 1678 (Summary of Project)]; assay type: functional
cells [20] = assay type: functional, cell-based
[21] = HEK293 cell cytotoxicity, dose response, cytotoxicity control, plate reader, cherry-picked samples (AID 743446); assay type: functional, cell-based
BJ [22] = assay: cytotoxicity toward BJ-TERT-LT-ST fibroblasts, dose response, cell-based, RAS-independent, luminescence (AID 1935); assay type: functional; conditions: Homo sapiens;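 further: BJ fibroblasts immortalized with TERT plus LT and ST oncogenes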
cells [23] = assay type: functional, cell-based; remark: listed apart in the source
[24] = MC4R antagonists, dose response, counter-screen for LGR2 antagonist project, cell-based, plate reader, cherry pick (AID 743444); assay type: functional;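 further: transfected HEK 293 cells stimulated with alpha-MSH peptide; potency of inhibitors of the alpha-MSH evoked signal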
[25] = cytotoxicity toward DRD oncogenic fibroblasts, dose response, cell-based, non-viral oncogenic, luminescence (AID 1934); assay type: functional; conditions: Homo sapiens
[26] = A549 cell cytotoxicity, dose response, cytotoxicity control, plate reader, cherry-pick, antagonist series (AID 743412); assay type: functional, cell-based
[27] = HepG2 cell cytotoxicity, dose response, cytotoxicity control, plate reader, cherry-pick, antagonist series (AID 743416); assay type: functional, cell-based
BJ [28] = assay: cells; assay type: functional, cell-based; conditions: Homo sapiens
[29] = biological target: Luciferin 4-monooxygenase (Photinus pyralis, UniProt P08659); assay: firefly luciferase enzyme inhibitors, dose response, biochemical, luminescence (AID 1891)
INS1 = assay: beta cell apoptosis inhibitors, cytokine rescue, dose response, luminescence, retest (AID 449756); assay type: functional, cell-based; conditions: Rattus norvegicus;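 further: cell death triggered by IL-1 beta plus TNF-alpha plus IFN-gamma mixture; protective hits raise ATP signal compared with cytokine alone wells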
[30] = biological target: Broad substrate specificity ATP-binding cassette transporter ABCG2 (Homo sapiens, UniProt Q9UNQ0); assay: ABCG2 efflux pump inhibitors, dose response, Ig-MXP3 cells, flow cytometry (AID 1690); assay type: functional
Sequence of Broad substrate specificity ATP-binding cassette transporter ABCG2 (Q9UNQ0 whole entry): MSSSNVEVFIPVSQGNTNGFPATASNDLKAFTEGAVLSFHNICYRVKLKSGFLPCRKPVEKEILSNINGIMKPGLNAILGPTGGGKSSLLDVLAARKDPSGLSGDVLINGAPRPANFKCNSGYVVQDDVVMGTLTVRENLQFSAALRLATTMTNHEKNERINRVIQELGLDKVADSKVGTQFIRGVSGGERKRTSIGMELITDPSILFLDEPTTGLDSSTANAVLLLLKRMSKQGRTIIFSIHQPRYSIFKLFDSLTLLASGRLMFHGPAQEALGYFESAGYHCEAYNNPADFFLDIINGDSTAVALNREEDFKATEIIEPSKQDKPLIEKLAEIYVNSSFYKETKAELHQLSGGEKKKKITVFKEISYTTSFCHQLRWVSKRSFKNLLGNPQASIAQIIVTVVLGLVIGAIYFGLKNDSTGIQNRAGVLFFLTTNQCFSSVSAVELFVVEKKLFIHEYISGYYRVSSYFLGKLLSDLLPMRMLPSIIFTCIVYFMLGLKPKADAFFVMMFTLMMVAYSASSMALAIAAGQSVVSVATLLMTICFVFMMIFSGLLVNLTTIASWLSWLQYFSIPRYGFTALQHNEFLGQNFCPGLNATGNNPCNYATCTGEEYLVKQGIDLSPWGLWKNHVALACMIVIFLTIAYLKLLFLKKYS

[31] = biological target: ATP-dependent translocase ABCB1 (Homo sapiens, UniProt P08183); assay: ABCB1 efflux pump inhibitor potency, dose response, Jurkat-DNR cells, JC-1, flow cytometry (AID 1689); assay type: functional
[32] = biological target: Long-chain-fatty-acid--AMP ligase FadD28 (Mycobacterium tuberculosis, UniProt P9WQ59); assay: Fluorescence polarization aasay to screen for inhibitors that compete for the binding of FadD28 to a bisubstrate Measured in Biochemical System Using Plate Reader - 2147-01_Inhibitor_Dose_CherryPick_Activity.; assay type: functional, Mycobacterium tuberculosis H37Rv
[33] = HepG2 cell cytotoxicity, dose response, cytotoxicity control for Shn3 inhibitor project, CellTiter-Glo, cherry-picked (AID 624134); assay type: functional, cell-based
[34] = Shn3 3'UTR reporter inhibitors, dose response, cell-based, Clone20 osteoblasts, firefly luciferase, cherry-picked (AID 624132); assay type: functional;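 further: firefly luciferase luminescence from reporter carrying the Shn3 3'UTR in osteoblasts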
[35] = reduction of Shn3 3'UTR firefly luciferase signal, dose response, Schnurri-3 inhibitor project, cell-based, Clone20 osteoblasts, cherry-pick, set 2 (AID 720490); assay type: functional;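 further: actives lower the luminescence signal as inhibitors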
[36] = control 3'UTR Renilla luciferase suppression, dose response, counter-screen for Shn3 inhibitor project, cell-based, Clone20-Shn3RL, cherry-picked (AID 624133); assay type: functional
A549 = assay: A549 cell toxicity, dose response, cytotoxicity control, plate reader, cherry-pick samples (AID 687028); assay type: functional, cell-based; conditions: Homo sapiens
Vero = assay: cells; assay type: functional; conditions: Chlorocebus sabaeus
[37] = HeLa cell cytotoxicity, dose response, cytotoxicity control for MgcRacGAP inhibitor project (AID 624300); assay type: functional

## CCCn1nnnc1NCc1ccc(N2CCCC2)cc1
[1]
  AC50: > 160 µM (inactive)

## CCN(CC)CCn1c2ccccc2c2nc3ccc([N+](=O)[O-])cc3cc21
[2]
  AC50: 1.56 µM (active)
[3]
  EC50: > 91.2 µM (inactive)
[4]
  EC50: 15.8 µM (active)
[5]
  EC50: 7.55 µM (active)
[6]
  AC50: 39.6 µM (active)
[7]
  EC50: > 120 µM (not active)
[8]
  AC50: 5.85 µM (active)
[9]
  EC50: 8.22 µM (inconclusive)

## COc1ccc2ccccc2c1C1CC(=O)N2CN(C3CCCCC3)CSC2=C1C#N (stereo unspecified)
fMet-Leu-Phe receptor
  Ki: 19.7 µM (inactive)
[10]
  IC50: > 56.8 µM (not active)
[11]
  IC50: 0.632 µM (active)
[12]
  IC50: > 50 µM (inactive)
[13]
  IC50: 5.43 µM (active)
[14]
  IC50: > 80 µM (inactive)

## Cc1ccc(-c2noc(-c3ccccc3F)n2)cc1
[15]
  AC50: 26 µM (active)

## CCCN1/C(=C2/SC(=S)N(CC)C2=O)C=Cc2ccccc21
[16]
  IC50: 30.6 µM (inactive)

## Cc1nc2cc(-c3ccccc3)sc2c(=O)n1N
BJ [17]
  EC50: 5.93 µM (active)
[18]
  AC50: 0.868 µM (active)
[19]
  EC50: 0.365 µM (active)
Cells [20]
  EC50: > 350 µM (not active)
[21]
  AC50: 5.12 µM (active)
BJ [22]
  EC50: 12 µM (active)
Cells [23]
  EC50: 7.12 µM (active)
[24]
  AC50: 1.17 µM (active)
[25]
  EC50: 3.78 µM (active)
[26]
  AC50: 5.97 µM (active)
[27]
  AC50: 5.13 µM (active)
BJ [28]
  EC50: 2.32 µM (inconclusive)
[29]
  EC50: 0.546 µM (active)
INS1
  AC50: 3.95 µM (active)

## N#Cc1ccc(COC(=O)c2ccc(N3CCCC3)c([N+](=O)[O-])c2)cc1
[30]
  EC50: 0.45 µM (inactive)
[31]
  EC50: 12 µM (inactive)

## O=C(NC(NC(=S)N1CCOCC1)C(Cl)(Cl)Cl)c1cccc2ccccc12 (stereo unspecified)
[32]
  AC50: > 100 µM (inactive)

## CC(=O)Nc1ccc(OCC(=O)Nc2ccc(Cl)c(S(=O)(=O)N3CCOCC3)c2)cc1
[33]
  AC50: 53.5 µM (active)
[34]
  AC50: 1.59 µM (active)
[35]
  AC50: 3.49 µM (active)
[36]
  AC50: 9.23 µM (active)

## COc1ccc(-c2cc(NC=O)c3ncc(-c4cc(OC)c(OC)c(OC)c4)n3c2)c(OC)c1
A549
  AC50: 13.6 µM (active)

## O=[N+]([O-])/C=C/c1cc2ccccc2[nH]1
Vero
  CC50: > 25 µM (active)
[37]
  CC50: 94.6 µM (active)
